Experimental data published in paper PMC12208134, “Structure-activity relationships of 1,5-dihydro-2H-benzo[b][1,4]diazepine-2,4(3H)-diones as inhibitors of Trypanosoma cruzi” (RSC medicinal chemistry, 2025).
Values after ≈ are worked out from the molar mass of the structure shown. Values joined by “and” are separate entries in the source; they are usually repeats but may differ in a detail not shown here. Equal entries are not always repeated. Where two headings read alike, the source gives them in different places.

Experiments:
[1] = tested on: intracellular T. cruzi amastigotes; experiment: T. cruzi intracellular potency assay (high content imaging); format: cell-based, Trypanosoma cruzi; parameters: key to Max Effect (T. cruzi): % inhibition; 0% = DMSO control, 100% = 16 μM nifurtimox control; details: for Emax / IC50 / EC50: Trypanosoma cruzi; for Emax / Hill slope (T. cruzi) / Max Effect (T. cruzi) / pEC50 (T. cruzi) / EC50: individual replicate; for Emax: read-out: Max Effect (T. cruzi); for IC50: intracellular amastigotes in Vero cells, 96 h, mean of N ≥ 3, read-out: T. cruzi pIC50 (converted); for EC50: read-out: pEC50 (T. cruzi) (converted)
Procedure: (§1) T. cruzi intracellular potency and rate-of-kill assay (high content imaging) ^1
(§2) Silvio X10/7 T. cruzi trypomastigotes were incubated at 37°C 5% CO2 with 1.6×10^7 Vero cells overnight at MOI10 in MEM media supplemented with 10% foetal calf serum (FCS). Extracellular parasites were removed by aspirating cell culture supernatant, and washing Vero monolayer with 10 ml serum-free MEM three times. Vero cells were then harvested by trypsinization and dispensed at 2×10^3 per well (50 μl in MEM/ 1% FCS) into 384 well plates pre-stamped with compounds in DMSO using automated washer/ dispenser EL406 and liquid handling software (Biotek). Plates were then incubated at 37°C in 5% CO2 for 96 h. For rate-of-kill determination, plates were incubated for 24h, 48h, 72h and 96h.
(§3) Plates were subsequently fixed with 4% formaldehyde for 20 min, permeabilised and stained with 5 μgml^-1 Hoechst 33342/ 0.1% Triton/ PBS Thimerosal 20 min. Automated imaging was performed by an Operetta high content imaging system using 20x objective (PerkinElmer). Images were analysed with an algorithm generated in Columbus (PerkinElmer) to segment Vero cell nuclei, Vero cell cytoplasm and parasite nuclei/ kinetoplasts, reporting number of amastigotes per Vero cell, percent infected Vero cells and total number of Vero cells. Compound potencies against T. cruzi parasites were calculated in IDBS Activitybase using percent infected Vero cells and Vero toxicity curves generated using number of host cells. All data was normalised to percent inhibition based on the raw data values for the 100% effect control (16 μM nifurtimox) and the 0% effect control (DMSO) on each plate at each time point. Curve fitting was carried out using a four-parameter equation as previously described. ^2 For rate-of-kill experiments the percent infected cells at each compound concentration was plotted against time.

host Vero cell = experiment: Vero host cell toxicity in the intracellular T. cruzi assay; format: cell-based; parameters: key to Max Effect (Vero): % inhibition; 0% = DMSO control, 100% = 16 μM nifurtimox control; details: for IC50: host Vero cell, read-out: Vero pIC50 (converted)
Procedure: as §1, §2, §3

[2] = Kinetic aqueous solubility by CAD; format: physicochemical; details: kinetic from dmso stock
[3] = Mouse liver microsomal intrinsic clearance; format: in vitro ADME
[4] = Human liver microsomal intrinsic clearance; format: in vitro ADME
[5] = ChromLogD pH7.4 (chromatographic hydrophobicity index), PFI, LLE; details: for PFI: ChromLogDpH7.4 + no. aromatic rings; for chromatographic logD: pH 7.4
Source text: [23] Alongside PFI, LLE (ligand lipophilic efficiency, T. cruzi pIC50 - ChromLogDpH7.4) was also monitored to identify changes where the impact on potency was not driven by increasing lipophilicity.

intracellular T. cruzi = experiment: T. cruzi washout assay; format: cell-based, Trypanosoma cruzi; details: 25 x IC50 for 16 days, infected Vero cells
Procedure: For any hits identified and successfully triaged, the initial focus of hit-expansion is to identify compounds with a suitable profile to run in a washout assay.,[21] In this assay, intracellular T. cruzi are treated with high doses of compounds for an extended duration (25x IC50 for 8 – 16 days), followed by compound washout and assessment of parasite relapse over 60 days to assess ability to clear all parasites, including any persisters. […] Compound series with a profile equal to or better than benznidazole can then be progressed to an in vivo efficacy model of chronic Chagas disease with a high probability of success.
At this stage, we were keen to examine our options for progression into the T. cruzi washout assay, [12],[21] and decided to move forward with 2, 14 and 16 to give coverage across both chemotypes. […] After this dosing period, the compound was washed off the infected cells, and the host cell monolayer was monitored for egressed parasites. The first day egressed parasites were detected post washout was noted down as the relapse day. In this assay, posaconazole, which is known to be ineffective in the clinic, relapsed after 10 days and benznidazole, used as the bench-mark clinical compound, relapsed after 31 / 35 days (2 replicates). We were therefore looking for compounds that relapsed at an equivalent time to benznidazole, or later, to be considered worth pursuing further.
Intracellular T. cruzi washout assays were carried out with the Silvio X10/7 strain using the protocol previously described. ^1

Tc-CYP51 = Tc-CYP51 (Trypanosoma cruzi, UniProt Q7Z1V1); experiment: T. cruzi sterol 14α-demethylase (CYP51) enzyme assay; format: biochemical; details: for Tc CYP51 Hill / Emax / IC50: individual replicate; for Emax: read-out: Tc CYP51 Max Effect; for IC50: read-out: Tc CYP51 pIC50 (converted)
Chain of Tc-CYP51 (Q7Z1V1 whole entry): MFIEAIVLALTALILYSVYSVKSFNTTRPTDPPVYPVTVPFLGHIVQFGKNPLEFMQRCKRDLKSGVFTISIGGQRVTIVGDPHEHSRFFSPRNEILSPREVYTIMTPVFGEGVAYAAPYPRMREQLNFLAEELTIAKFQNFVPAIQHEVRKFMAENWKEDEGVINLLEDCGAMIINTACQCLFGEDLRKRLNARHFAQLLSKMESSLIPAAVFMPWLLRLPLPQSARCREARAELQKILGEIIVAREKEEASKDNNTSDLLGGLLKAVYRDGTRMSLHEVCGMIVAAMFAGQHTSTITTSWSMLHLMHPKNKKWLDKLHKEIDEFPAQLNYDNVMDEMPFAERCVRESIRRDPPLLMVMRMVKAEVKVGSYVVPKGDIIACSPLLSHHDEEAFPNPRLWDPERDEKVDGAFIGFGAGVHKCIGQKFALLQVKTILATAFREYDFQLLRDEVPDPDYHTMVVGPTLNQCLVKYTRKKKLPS
Procedure: T. cruzi sterol 14α-demethylase (CYP51) enzyme assay
Potency against T. cruzi CYP51 was determined using a previously described fluorescence assay. Average potency for compound 1 was determined with three experimental replicates. Potencies in Fig.3 are from single experimental replicates. ^5

T. cruzi trypomastigotes = tested on: T. cruzi trypomastigotes; parameters: method as in PMID 30001347; details: cited from earlier work
[6] = Chlorocebus sabaeus, Vero, individual replicate
[7] = kinetic, CAD, read-out: Aqueous solubility

Row | SMILES | Emax [1] | IC50 [1] | Hill slope (T. cruzi) [1] | Max Effect (T. cruzi) [1] | pEC50 (T. cruzi) [1] | EC50 (host Vero cell; [6]) | IC50 (host Vero cell; Chlorocebus sabaeus) | Max Effect (Vero) (host Vero cell; individual replicate) | PFI [5] | chromatographic logD [5] | relapse day post washout (intracellular T. cruzi) | Tc CYP51 Hill (Tc-CYP51) | Emax (Tc-CYP51) | IC50 (Tc-CYP51) | solubility [2, 7] | MLM CLi ([3]; mouse liver microsomes) | HLM CLi ([4]; human liver microsomes) | EC50 [1] | further results
1 | CC(C)N(C(=O)CN1C(=O)C(N)C(=O)N(c2ccccc2)c2ccccc21)c1ccccc1 (racemic) [Compound 14, 2-(3-amino-2,4-dioxo-5-phenyl-2,3,4,5-tetrahydro-1H-benzo[b][1,4]diazepin-1-yl)-N-isopropyl-N-phenylacetamide] | 89% | 0.2 µM | 4.0 and 12.9 and 3.7 and 29.0 and 4.4 and 2.2 and 5.2 | 87 and 86 and 88 and 93 and 92 and 82 | 6.6 and 6.8 and 7.0 and 6.7 | > 50.1 µM | > 50.1 µM | -6.63 and 8 and -0.0425 and 13 and 41 and 1.19 and 11 | 8.0 | 5 | 6 days | – | – | – | – | – | – | – | pEC50 (Vero) (host Vero cell; individual replicate): < 4.3; solubility [2]: > 500 µM; MLM CLi ([3]; mouse, microsomes): 3.4 mL/min/g; HLM CLi ([4]; human, microsomes): <0.4 mL/min/g
2 | COc1ccc(NC(=O)NC2C(=O)Nc3ccccc3N(c3ccccc3)C2=O)cc1 (centres unmarked) [Compound 2, 1-(2,4-dioxo-1-phenyl-2,3,4,5-tetrahydro-1H-benzo[b][1,4]diazepin-3-yl)-3-(4-methoxyphenyl)urea] | 89% | 1.26 µM | 2.1 and 3.4 and 3.0 and 9.3 and 1.5 and 2.5 and 0.659 | 99 and 83 and 84 and 94 and 93 and 92 and 88 | 5.8 and 5.7 and 6.3 and 5.9 | > 50.1 µM | > 50.1 µM | 26 and 22 and 25 and -6 and 27 and 29 and 1.42 and 36 | 7.0 | 4 | 10 days | 1.1 | 95% | 7.94 µM | 64 µM (≈ 26.7 µg/mL) | <0.5 mL/min/g | <0.4 mL/min/g | – | fold more potent against the parasites than against Tc-CYP51 (Tc-CYP51; urea series): 10 fold
3 | COc1ccc(CN2C(=O)C(N)C(=O)N(c3ccc(OC)cc3)c3ccccc32)cc1 (centres unmarked) [Compound 16, 3-amino-1-(4-methoxybenzyl)-5-(4-methoxyphenyl)-1,5-dihydro-2H-benzo[b][1,4]diazepine-2,4(3H)-dione] | 86% | 0.316 µM | 3.7 and 4.5 and 5.7 and 13.7 | 81 and 84 and 91 | 6.6 | > 50.1 µM | > 50.1 µM | 21 and 44 and 30 and 5.55 | 7.2 | 4.2 | 6 days | – | – | – | – | – | – | 0.316 µM | solubility [2]: > 270 µM; MLM CLi ([3]; mouse, microsomes): 7.6 mL/min/g; HLM CLi ([4]; human, microsomes): <0.4 mL/min/g
4 | COc1ccc(CN2C(=O)C(N)C(=O)N(c3ccc(OC)nc3)c3ccccc32)cc1 (centres unmarked) [Compound 18, 3-amino-1-(4-methoxybenzyl)-5-(6-methoxypyridin-3-yl)-1,5-dihydro-2H-benzo[b][1,4]diazepine-2,4(3H)-dione] | 75% | 0.501 µM | 11.9 and 18.7 and 19.1 and 12.3 | 86 and 77 and 83 | – | > 50.1 µM | > 50.1 µM | 39 and 19 and 56 and 14 | 6.8 | 3.8 | – | 1.3 | 100% | 0.2 µM | > 332 µM | 5.8 mL/min/g | <0.4 mL/min/g | 0.501 µM | Hill Slope (Vero) (host Vero cell; individual replicate): 3.7; pEC50 (Vero) (host Vero cell; individual replicate): 4.4
5 | COc1ccc(CN2C(=O)C(N)C(=O)N(C3CC3)c3ccccc32)cc1 (centres unmarked) [Compound 19, 3-amino-1-cyclopropyl-5-(4-methoxybenzyl)-1,5-dihydro-2H-benzo[b][1,4]diazepine-2,4(3H)-dione] | 88% | 3.98 µM | 14.2 and 4.9 and 13.0 and 5.9 | 87 | 5.5 and 5.4 | > 50.1 µM | > 50.1 µM | 15 and 17 and 14 | 5.2 | 3.2 | – | 1.0 | 94% | 0.316 µM | > 442 µM | 11.8 mL/min/g | <0.4 mL/min/g | 5.01 µM | Emax (host Vero cell; Chlorocebus sabaeus, Vero, individual replicate, read-out: Max Effect (Vero)): 18%
6 | COc1ccc(CN2C(=O)C(N)C(=O)N(CC3CC(F)(F)C3)c3ccccc32)cc1 (centres unmarked) [Compound 20, 3-amino-1-((3,3-difluorocyclobutyl)methyl)-5-(4-methoxybenzyl)-1,5-dihydro-2H-benzo[b][1,4]diazepine-2,4(3H)-dione] | 84% | 1.26 µM | 2.8 and 3.6 and 20.7 | 90 and 80 and 87 | 6.1 and 6.0 and 5.8 | > 50.1 µM | > 50.1 µM | 30 and 22 and 25 and 9 | 6.2 | 4.2 | – | 1.3 | 99% | 0.1 µM | > 402 µM | 12 mL/min/g | 0.5 mL/min/g | 1.26 µM | –
7 | O=C(Cn1ccnc1[N+](=O)[O-])NCc1ccccc1 [benznidazole, reference compound] | – | – | – | – | – | – | – | – | – | – | 31 days and 35 days | – | – | – | – | – | – | – | activity against trypomastigotes (T. cruzi trypomastigotes): good activity
8 | CC1CS(=O)(=O)CCN1/N=C/c1ccc([N+](=O)[O-])o1 (centres unmarked) [nifurtimox] | – | – | – | – | – | – | – | – | – | – | – | – | – | – | – | – | – | – | activity against trypomastigotes (T. cruzi trypomastigotes): good activity
